A short description of series [1]: log P by HPLC on reversed-phase (C18) columns, OECD Guideline 117. The series is classed as physicochemical. Conditions: reversed-phase (C18) HPLC column. As to the method: The log P values were determined in accordance with OECD Guideline 117 (EC Directive 92/69/EEC) by HPLC (high-performance liquid chromatography) using reversed-phase (RP) columns (C18), by the following methods: [a] The LC-MS determination in the acidic range is carried out at pH 2.7 with 0.1% aqueous formic acid and acetonitrile (contains 0.1% formic acid) as eluents; linear gradient from 10% acetonitrile to 95% acetonitrile. [b] LC-MS determination in the neutral range is effected at pH 7.8 with 0.001 molar aqueous ammonium hydrogencarbonate solution and acetonitrile as eluents; linear gradient from 10% acetonitrile to 95% acetonitrile. Calibration is carried out using unbranched alkan-2-ones (having 3 to 16 carbon atoms) with known log P values (log P values determined on the basis of the retention times by linear interpolation between two successive alkanones).

Series [2] concerns Myzus persicae. Nature of the series: Myzus persicae spray test (bell pepper plants). The series is classed as in vivo, green peach aphid (Myzus persicae). Particulars: after 6 days. As to the method:
Myzus persicae—Spray Test • Solvent: 7 parts by weight of dimethylformamide • Emulsifier: alkylaryl polyglycol ether To produce a suitable preparation of active compound, 1 part by weight of active compound is dissolved using the specified parts by weight of solvent and made up with water containing an emulsifier concentration of 1000 ppm until the desired concentration is attained. To produce further test concentrations, the formulation is diluted with emulsifier-containing water. If the addition of ammonium salts or/and penetrants is required, these are each added in a concentration of 1000 ppm to the formulation solution. Bell pepper plants (Capsicum annuum) severely infested with the green peach aphid (Myzus persicae) are treated by spraying with the active compound formulation in the desired concentration. After 6 days, the kill in % is determined. 100% means that all of the aphids have been killed; 0% means that none of the aphids have been killed.

Series [3] deals with Myzus persicae. Description: Myzus persicae spray test (Chinese cabbage leaf discs). The series is classed as in vivo, green peach aphid (Myzus persicae). Conditions: foliar, 144 h, application rate 500 g/ha, after 6 days, 100% = all aphids killed, read-out: efficacy. As to the method: Myzus persicae—Spray Test • Solvent: 78 parts by weight of acetone • 1.5 parts by weight of dimethylformamide • Emulsifier: alkylaryl polyglycol ether To produce a suitable preparation of active compound, 1 part by weight of active compound is dissolved using the specified parts by weight of solvent and made up with water containing an emulsifier concentration of 1000 ppm until the desired concentration is attained. To produce further test concentrations, the formulation is diluted with emulsifier-containing water. Discs of Chinese cabbage leaves (Brassica pekinensis) infested by all stages of the green peach aphid (Myzus persicae) are sprayed with an active compound formulation of the desired concentration. After 6 days, the efficacy in % is determined. 100% means that all the aphids have been killed; 0% means that no aphids have been killed.

The subject of a further series is Aphis gossypii. Description: Aphis gossypii spray test (cotton plants). The series is classed as in vivo, cotton aphid (Aphis gossypii). Conditions: application rate 4 ppm, after 6 days. As to the method: Aphis gossypii—Spray Test • Solvent: 7 parts by weight of dimethylformamide • Emulsifier: alkylaryl polyglycol ether To produce a suitable preparation of active compound, 1 part by weight of active compound is dissolved using the specified parts by weight of solvent and made up with water containing an emulsifier concentration of 1000 ppm until the desired concentration is attained. To produce further test concentrations, the formulation is diluted with emulsifier-containing water. If the addition of ammonium salts or/and penetrants is required, these are each added in a concentration of 1000 ppm to the formulation solution. Cotton plants (Gossypium hirsutum) which are heavily infested by the cotton aphid (Aphis gossypii) are sprayed with an active compound formulation of the desired concentration. After 6 days, the kill in % is determined. 100% means that all the aphids have been killed; 0% means that no aphids have been killed.

Another series deals with Tetranychus urticae. Description: Tetranychus urticae spray test, OP-resistant (bean leaf discs). Particulars: application rate 500 g/ha, after 6 days, 100% = all spider mites killed. The series is classed as in vivo, greenhouse red spider mite (Tetranychus urticae). As to the method:
Tetranychus urticae—Spray Test, OP-Resistant • Solvent: 78.0 parts by weight of acetone • 1.5 parts by weight of dimethylformamide • Emulsifier: alkylaryl polyglycol ether
To produce a suitable preparation of active compound, 1 part by weight of active compound is dissolved using the specified parts by weight of solvent and made up with water containing an emulsifier concentration of 1000 ppm until the desired concentration is attained. To produce further test concentrations, the formulation is diluted with emulsifier-containing water.
Discs of bean leaves (Phaseolus vulgaris) infested with all stages of the greenhouse red spider mite (Tetranychus urticae) are sprayed with an active compound formulation of the desired concentration.
After 6 days, the efficacy in % is determined. 100% means that all the spider mites have been killed; 0% means that no spider mites have been killed.

Where [4] appears, read: acidic range, pH 2.7, 0.1% aqueous formic acid / acetonitrile, read-out: logP[a].
The mark [5] stands for this setting: neutral range, pH 7.8, 0.001 molar aqueous ammonium hydrogencarbonate / acetonitrile, read-out: logP[b].

The values that follow come from patent US20170265474A1, “BICYCLIC COMPOUNDS AS PEST CONTROL AGENTS” (BAYER CROPSCIENCE AKTIENGESELLSCHAFT, priority 2014, published 2017).

The structures appear in SMILES notation. Like-named read-outs stand apart in the source and are kept apart here.

With `Cc1cc(F)c(-c2ccc3nc(-c4cccnc4)sc3n2)cc1SCC(F)(F)F` [Example 1, 5-[2-Fluoro-4-methyl-5-(2,2,2-trifluoroethylsulfanyl)phenyl]-2-(3-pyridyl)thiazol [5,4-b]pyridine], the chromatographic logP in series [1] (setting [4]) turned out to be 4.81; in series [1] (setting [5]) it was 4.75. In addition, the “efficacy (kill)” value with Myzus persicae [2] (application rate 4 ppm) was found to be 100%. For the same compound, the pest or weed control at 500 g/ha in the series on Myzus persicae [3] was found to be 100%.

On to `Cc1ccc(-c2ccc3nc(-c4cccnc4)sc3n2)cc1SCC(F)(F)F` [Example 2, 5-[4-Methyl-3-(2,2,2-trifluoroethylsulfanyl)phenyl]-2-(3-pyridyl)thiazolo[5,4-b]pyridine], for which the chromatographic logP stood at 4.67 in series [1] (setting [4]) and 4.64 in series [1] (setting [5]). Further, the “efficacy (kill)” value in the series with Myzus persicae [2] (application rate 4 ppm) came to 100%. In addition, the pest or weed control at 500 g/ha with Myzus persicae [3] turned out to be 90%.

For the compound `Cc1cc(F)c(-c2ccc3nc(-c4cccnc4)sc3n2)cc1[S+]([O-])CC(F)(F)F` (stereo not shown) [Example 3, 5-[2-Fluoro-4-methyl-5-(2,2,2-trifluoroethylsulfinyl)phenyl]-2-(3-pyridyl)thiazolo[5,4-b]pyridine], the values for the chromatographic logP in series [1] (setting [4]) and in series [1] (setting [5]) were 3.02 and 3.09, respectively. In addition, in the series on Myzus persicae [2] (application rate 4 ppm), the “efficacy (kill)” value is 97%.

As for `Cc1ccc(-c2ccc3nc(-c4cccnc4)sc3n2)cc1[S+]([O-])CC(F)(F)F` (stereo not shown) [Example 4, 5-[4-Methyl-3-(2,2,2-trifluoroethylsulfinyl)phenyl]-2-(3-pyridyl)thiazolo[5,4-b]pyridine], the figures for the chromatographic logP in series [1] (setting [4]) and in series [1] (setting [5]) were 2.99 and 2.98, respectively. The “efficacy (kill)” value in the series with Myzus persicae [2] (application rate 4 ppm) is listed as 95%. Further, in the series with Myzus persicae [3], the pest or weed control at 500 g/ha was found to be 90%.

On to `c1cncc(-c2nc3ccc(N4CCCC4)nc3s2)c1` [Example 6, 2-(3-Pyridyl)-5-pyrrolidin-1-ylthiazolo[5,4-b]pyridine], for which the chromatographic logP was found to be 2.53 in series [1] (setting [4]) and 2.97 in series [1] (setting [5]). Also, the “efficacy (kill)” value in the series with Myzus persicae [2] (application rate 100 ppm) worked out at 95%.

With `c1cnc(-c2ccc3nc(-c4cccnc4)sc3n2)nc1` [Example 7, 2-(3-Pyridyl)-5-pyrimidin-2-ylthiazolo[5,4-b]pyridine], the chromatographic logP was 1.43 in series [1] (setting [4]) and 1.5 in series [1] (setting [5]). In addition, the “efficacy (kill)” value with Aphis gossypii amounted to 80%.

`c1ccc(-c2ccc3nc(-c4cccnc4)sc3n2)nc1` [Example 8, 5-(2-Pyridyl)-2-(3-pyridyl)thiazolo[5,4-b]pyridine]: the chromatographic logP in series [1] (setting [4]) came out at 2.12; in series [1] (setting [5]) it was 2.68. For the same compound, in the series with Myzus persicae [2] (application rate 4 ppm), the “efficacy (kill)” value is listed as 80%.

In the case of `Cc1ccc(Nc2ccc3nc(-c4cccnc4)sc3n2)cc1SCC(F)(F)F` [Example 9, N-[4-Methyl-3-(2,2,2-trifluoroethylsulfanyl)phenyl]-2-(3-pyridyl)thiazolo[5,4-b]pyridine-5-amine], the chromatographic logP in series [1] (setting [4]) is 3.99; in series [1] (setting [5]), 4.06. Besides, the efficacy in the series on Tetranychus urticae was 90%.

Turning to `FC(F)(F)c1ccc2nc(-c3cccnc3)sc2n1` [Example 10, 2-(3-Pyridyl)-5-(trifluoromethyl)thiazolo[5,4-b]pyridine], the chromatographic logP in series [1] (setting [4]) is 2.65; in series [1] (setting [5]), 2.69. Moreover, in the series with Tetranychus urticae, the efficacy is 90%.

Turning to `c1cncc(-c2nc3ccc(N4CCOCC4)nc3s2)c1` [Example 11, 4-[2-(3-Pyridyl)thiazolo[5,4-b]pyridin-5-yl]morpholine], the chromatographic logP is 2.1 in series [1] (setting [4]) and 1.95 in series [1] (setting [5]). In addition, the pest or weed control at 500 g/ha in the series on Myzus persicae [3] worked out at 90%.

As for `Cc1ccc(N(C)c2ccc3nc(-c4cccnc4)sc3n2)cc1SCC(F)(F)F` [Example 12, N-methyl-N-[4-methyl-3-(2,2,2-trifluoroethylsulfanyl)phenyl]-2-(3-pyridyl)thiazolo[5,4-b]pyridine-5-amine], the chromatographic logP stood at 4.81 in series [1] (setting [4]) and 4.78 in series [1] (setting [5]). Besides, in the series on Myzus persicae [3], the pest or weed control at 500 g/ha was 90%.

In the case of `FC(F)(F)c1cnn(-c2ccc3nc(-c4cccnc4)sc3n2)c1` [Example 13, 2-(3-Pyridyl)-5-[4-(trifluoromethyl)pyrazol-1-yl]thiazolo[5,4-b]pyridine], the chromatographic logP in series [1] (setting [4]) turned out to be 3.82; in series [1] (setting [5]) it was 3.72.

For `CNc1ccc2nc(-c3cccnc3)sc2n1` [Example 15], in series [1] (setting [4]), the chromatographic logP stood at 1.34.

In the case of `CSCCC(=O)N(C)c1ccc2nc(-c3cccnc3)sc2n1` [Example 22], in series [1] (setting [4]), the chromatographic logP is 1.98. For the same compound, the pest or weed control at 500 g/ha in the series with Myzus persicae [3] stood at 90%.

`CN(C(=O)c1cccc([S+]([O-])C(F)(F)F)c1)c1ccc2nc(-c3cccnc3)sc2n1` (stereo not shown) [Example 29]: in series [1] (setting [4]), the chromatographic logP came to 2.23. Moreover, in the series on Myzus persicae [3], the pest or weed control at 500 g/ha came to 100%.

`CN(C(=O)CCS(C)(=O)=O)c1ccc2nc(-c3cccnc3)sc2n1` [Example 30, N-Methyl-3-(methylsulfonyl)-N-[2-(pyridin-3-yl)[1,3]thiazolo[5,4-b]pyridin-5-yl]propanamide]: the chromatographic logP in series [1] (setting [4]) came out at 1.25. The pest or weed control at 500 g/ha with Myzus persicae [3] came out at 90%.

Take `CN(C(=O)c1cccc(S(=O)(=O)C(F)(F)F)c1)c1ccc2nc(-c3cccnc3)sc2n1` [Example 31]: the chromatographic logP in series [1] (setting [4]) stood at 1.54. Also, the pest or weed control at 500 g/ha in the series on Myzus persicae [3] came to 90%.

In the case of `CNC(=O)c1ccc2nc(-c3cccnc3)sc2n1` [Example 32], in series [1] (setting [4]), the chromatographic logP is 1.35.

`CCN(C)C(=O)c1ccc2nc(-c3cccnc3)sc2n1` [Example 33]: the chromatographic logP in series [1] (setting [4]) is 1.53.

Turning to `O=C(Nc1cccc(S(=O)(=O)C(F)(F)F)c1)c1ccc2nc(-c3cccnc3)sc2n1` [Example 34], the chromatographic logP in series [1] (setting [4]) was 2.1.

`CSCCNC(=O)c1ccc2nc(-c3cccnc3)sc2n1` [Example 35]: the chromatographic logP in series [1] (setting [4]) is 2.03. Besides, in the series with Myzus persicae [3], the pest or weed control at 500 g/ha came out at 90%.

For the compound `O=C(Nc1cccc([S+]([O-])C(F)(F)F)c1)c1ccc2nc(-c3cccnc3)sc2n1` (stereo not shown) [Example 36], the chromatographic logP in series [1] (setting [4]) amounted to 3.09.

Consider `O=C(Nc1ccc2nc(-c3cccnc3)sc2n1)c1cccc([S+]([O-])C(F)(F)F)c1` (stereo not shown) [Example 37], for which, in series [1] (setting [4]), the chromatographic logP was 2.61.

On to `CS(=O)(=O)CCC(=O)Nc1ccc2nc(-c3cccnc3)sc2n1` [Example 38], for which, in series [1] (setting [4]), the chromatographic logP stood at 1.18.

Consider `FC(F)(F)c1ccn(-c2ccc3nc(-c4cccnc4)sc3n2)n1` [Example 39], for which the chromatographic logP in series [1] (setting [4]) was 3.79; in series [1] (setting [5]) it was 3.83.

For `Clc1ccc2nc(-c3cccnc3)sc2n1` [Example 40], the results for the chromatographic logP in series [1] (setting [4]) and in series [1] (setting [5]) were 2.26 and 2.33, respectively.

As to `Cc1ccc(Nc2ccc3nc(-c4cccnc4)sc3n2)cc1[S+]([O-])CC(F)(F)F` (stereo not shown) [Example 42], the chromatographic logP came to 2.75 in series [1] (setting [4]) and 2.77 in series [1] (setting [5]).
